Structures are written as SMILES.

Assay [1] has as its system MCF7 breast cancer cells. The experiment in a line: Hoechst 33342 staining of nuclear morphological changes (apoptosis). Format: cell-based, human. The conditions noted are these: MCF7, 150 μM, 24 hrs, FIG. 3B. The method, then:
MCF7 cells (2×10^4 cells/well) were treated with 3 μM, 30 μM, 300 μM, 600 μM, 1.5 mM of isopicrinine at 37° C. in a humidified incubator with 5% CO2 for 20 hrs. After the drug treatment, cells were analysed under phase contrast microscope. Cytotoxicity was detected at 300 μM concentration onwards in all the samples. […] The nuclear morphological changes, which are mainly associated with apoptosis were analysed by Hoechst 33342 staining. Briefly, MCF7 cells (2×10^4 cells/well) were grown on coverslips and treated with 150 μM of purified alkaloid for 24 hrs. The cells were washed with Dulbecco's phosphate buffer saline (DPBS) and fixed with 100% methanol for 15 min at room temperature. Cells were washed with DPBS and stained with Hoechst 33342 for 15 min at room temperature. The cells were washed thrice with DPBS and analysed under fluorescent microscope (Nikon, Japan).

Assay [2] has as its system MCF7 breast cancer cells. Put plainly: RNA-Seq gene expression profiling of isopicrinine-treated MCF7 cells. The conditions noted are these: MCF7, 30 μM and 150 μM. Format: cell-based, human.
Assay [3] deals with MCF7 breast cancer cells. The experiment in a line: cells. In kind it is cell-based, human. The method, then:
(§1) MCF7, a breast cancer cell line was procured from the American Type Culture Collection (ATCC) and propagated in Dulbecco's Modified Eagle's medium (DMEM) supplemented with 10% (v/v) fetal bovine serum (FBS), 100 μg/ml streptomycin and 100 U/ml penicillin at 37° C. in a humidified incubator with 5% CO2. Human pancreatic cell lines, AsPC1 and PANC1, were obtained from the American Type Culture Collection (ATCC). AsPC1 cell line was grown in RPMI-1640 medium supplemented with 10% (v/v) fetal bovine serum (FBS), 100 μg/ml streptomycin and 100 U/ml penicillin. PANC1 cell line was cultured in DMEM supplemented with 10% (v/v) fetal bovine serum (FBS), 100 μg/ml streptomycin and 100 U/ml penicillin.
MCF7 cells (2×10^4 cells/well) were sub-cultured in 24-well plate and incubated at 37° C. in a humidified incubator with 5% CO2 for 20 hrs. […] After the drug treatment, cells were analysed under phase contrast microscope. […]
MCF7 cells (2×10^4 cells/well) were treated with 3 μM, 30 μM, 300 μM, 600 μM, 1.5 mM of isopicrinine at 37° C. in a humidified incubator with 5% CO2 for 20 hrs. After the drug treatment, cells were analysed under phase contrast microscope. Cytotoxicity was detected at 300 μM concentration onwards in all the samples. […] The nuclear morphological changes, which are mainly associated with apoptosis were analysed by Hoechst 33342 staining. […]

The next assay concerns PANC1 cell line. The experiment in a line: cells. The settings on record: Homo sapiens, PANC-1, 24 h, read-out: % Cell Viability. Format: cell-based. The method, then: as §1
(§2) PANC1 and AsPC1 cells (1.3×10^4 cells/well) were sub-cultured in 96-well plates and incubated at 37° C. in a humidified incubator with 5% CO2 for 24 hrs. Varying concentrations of isopicrinine (i.e., 0, 30 μM, 75 μM, 150 μM and 300 μM were added to the cultured cells and further incubated at 37° C. in a humidified incubator with 5% CO2 for 24 hrs. The cell viability was determined using MTT (3-(4,5-dimethylthiazol-2-yl)-2,5-diphenyltetrazolium bromide) assay by following the manufacturer's instructions. Briefly, 20 μl/well of MTT was added to the cells and plates were incubated for 4 hrs. After the incubation, media along with the MTT was removed and 150 μl/well of isopropanol was added and further incubated for 15 min on shaker incubator. Spectrophotometer readings were taken at 450 nm and 630 nm. This assay is based on the conversion of yellow tetrazolium salt MTT to purple formazan crystal by metabolically active cells. The amount of formazan produced is proportional to the number of viable cells.

Another assay relates to AsPC1 cell line. Put plainly: cells. In kind it is cell-based. The conditions noted are these: Homo sapiens, ASPC1, 24 h, read-out: % Cell viability. Here is the method: as §1, §2

Regarding `C/C=C1\CN2[C@H]3C[C@@H]1[C@@H](C(=O)OC)[C@]14C[C@H]2O[C@]31Nc1ccccc14` [isopicrinine], the “nuclear morphology, Hoechst 33342 staining” value in the assay on MCF7 breast cancer cells [1] is “chromatin condensation and nuclear fragmentation”. In addition, in the assay on MCF7 breast cancer cells [2], the “cell proliferation at low doses compared to DMSO control” value is listed as “prevented further cell proliferation”. The IC50 in the assay on MCF7 breast cancer cells [3] (Homo sapiens, MCF7, 20 h, read-out: IC50 value (cytotoxic activity against MCF7 cells)) was 240 µM. Also, in the assay on MCF7 breast cancer cells [3] (MCF7, FIGS. 2D-2F (300, 600, 1,500 μM)), the “cell morphology after treatment with high doses” value was “cell shrinkage, cellular detachment and loss of adherent morphology”. In addition, in the assay with PANC1 cell line, the viability at 30 µM worked out at 74.5%, the viability at 75 µM came to 70.8%, the viability at 150 µM amounted to 69.6% and the viability at 300 µM came to 64.6%. Moreover, in the assay on AsPC1 cell line, the viability at 30 µM is 87.7%, the viability at 75 µM was 55.9%, the viability at 150 µM was 53.5% and the viability at 300 µM is 42.4%.

For the origin of these results see patent US10292972B1, “Pharmaceutical composition for treating cancer and a method thereof” (King Abdulaziz University, priority 2017, dated 2019).
